Assay results from ChEMBL document CHEMBL4177649, “On-site reaction for PPARγ modification using a specific bifunctional ligand” (Bioorg Med Chem, 2017).
One block for each compound: values may come before it. Activity calls are given as the source filed them. No cut-off for these calls is given here.

What was measured:
[1] = molecular target: T1, Peroxisome proliferator-activated receptor gamma (Homo sapiens) (UniProt P37231); experiment: Transactivation at human Gal4-fused PPARgamma LBD expressed in African green monkey COS7 cells by dual luciferase assay; format: cell-based
T1 sequence (whole entry): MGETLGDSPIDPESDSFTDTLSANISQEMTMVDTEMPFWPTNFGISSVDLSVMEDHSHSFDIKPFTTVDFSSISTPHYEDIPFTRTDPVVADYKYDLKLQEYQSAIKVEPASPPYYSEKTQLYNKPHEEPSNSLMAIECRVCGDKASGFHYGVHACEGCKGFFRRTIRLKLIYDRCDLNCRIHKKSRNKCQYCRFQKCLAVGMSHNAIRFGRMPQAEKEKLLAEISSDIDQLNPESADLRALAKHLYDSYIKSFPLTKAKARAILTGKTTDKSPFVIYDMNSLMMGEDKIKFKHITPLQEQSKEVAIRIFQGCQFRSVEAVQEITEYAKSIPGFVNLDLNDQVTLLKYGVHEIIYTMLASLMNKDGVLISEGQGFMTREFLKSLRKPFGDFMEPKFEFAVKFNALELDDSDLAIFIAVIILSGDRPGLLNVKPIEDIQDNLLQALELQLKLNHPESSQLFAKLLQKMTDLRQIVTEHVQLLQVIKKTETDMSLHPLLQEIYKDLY

[2] = molecular target: T1, Peroxisome proliferator-activated receptor gamma (Homo sapiens); experiment: Binding affinity to Gal4-fused PPARgamma LBD (unknown origin) expressed in Escherichia coli DH5alpha cell lysates at 4 equiv in presence of ADIBO-fluorescein by Coomassie Brilliant Blue staining method
[3] = molecular target: T1, Peroxisome proliferator-activated receptor gamma (Homo sapiens); experiment: Binding affinity to Gal4-fused human PPARgamma LBD (204 to 477 residues) assessed as labeling efficiency at 100 uM after 12 hrs by ESI-mass analysis
[4] = molecular target: T1, Peroxisome proliferator-activated receptor gamma (Homo sapiens); experiment: Binding affinity to Gal4-fused human PPARgamma LBD (204 to 477 residues) assessed as covalent modification at 100 uM after 24 hrs in presence of methyl N-((3E,5E)-2-oxohexadeca-3,5-dien-1-yl)-N-tosylglycinate by ESI-mass analysis
[5] = molecular target: T1, Peroxisome proliferator-activated receptor gamma (Homo sapiens); experiment: Binding affinity to Gal4-fused human PPARgamma LBD (204 to 477 residues) assessed as covalent modification at 100 uM after 24 hrs in presence of methyl N-((3E,5E)-16-azido-2-oxohexadeca-3,5-dien-1-yl)-N-tosylglycinate by ESI-mass analysis
[6] = molecular target: T1, Peroxisome proliferator-activated receptor gamma (Homo sapiens); experiment: Binding affinity to Gal4-fused PPARgamma LBD (unknown origin) expressed in Escherichia coli DH5alpha cell lysates at 4 equiv in presence of ADIBO-fluorescein by silver staining method
[7] = molecular target: T1, Peroxisome proliferator-activated receptor gamma (Homo sapiens); experiment: Binding affinity to Gal4-fused human PPARgamma LBD (204 to 477 residues) assessed as covalent modification at 100 uM after 24 hrs by ESI-mass analysis
[8] = molecular target: T1, Peroxisome proliferator-activated receptor gamma (Homo sapiens); experiment: Binding affinity to human Gal4-fused PPARgamma LBD expressed in African green monkey COS7 cells assessed in presence of ADIBO-fluorescein; format: cell-based
[9] = molecular target: T1, Peroxisome proliferator-activated receptor gamma (Homo sapiens); experiment: Binding affinity to Gal4-fused PPARgamma LBD (unknown origin) expressed in Escherichia coli DH5alpha cell lysates in presence of ADIBO-fluorescein by SDS-PAGE analysis
[10] = molecular target: T1, Peroxisome proliferator-activated receptor gamma (Homo sapiens); experiment: Binding affinity to Gal4-fused PPARgamma LBD (unknown origin) expressed in Escherichia coli DH5alpha cell lysates at 4 equiv in presence of ADIBO-fluorescein by SDS-PAGE analysis
[11] = molecular target: T2, Peroxisome proliferator-activated receptor gamma (Mus musculus) (UniProt P37238); experiment: Binding affinity to Gal4-fused PPARgamma LBD in mouse 3T3-L1 cells assessed in presence of ADIBO-fluorescein; format: cell-based
T2 sequence (whole entry): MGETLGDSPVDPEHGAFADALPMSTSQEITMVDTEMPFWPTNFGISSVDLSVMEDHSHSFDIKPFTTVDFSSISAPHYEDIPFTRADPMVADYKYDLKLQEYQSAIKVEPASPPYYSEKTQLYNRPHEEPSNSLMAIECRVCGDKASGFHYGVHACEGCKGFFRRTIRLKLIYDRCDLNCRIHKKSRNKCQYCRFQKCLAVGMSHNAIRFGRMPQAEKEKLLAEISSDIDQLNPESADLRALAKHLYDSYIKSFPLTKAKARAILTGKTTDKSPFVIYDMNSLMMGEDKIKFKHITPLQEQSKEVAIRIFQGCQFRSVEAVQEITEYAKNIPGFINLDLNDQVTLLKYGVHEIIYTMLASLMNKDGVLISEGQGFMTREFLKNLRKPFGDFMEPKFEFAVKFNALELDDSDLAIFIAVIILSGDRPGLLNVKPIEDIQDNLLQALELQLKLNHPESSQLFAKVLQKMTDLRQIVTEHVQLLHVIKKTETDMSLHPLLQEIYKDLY

Compound: O=C(O)c1cc(NC(=S)NCCCCCC(=O)N2Cc3ccccc3C#Cc3ccccc32)ccc1-c1c2ccc(=O)cc-2oc2cc(O)ccc12
Activity [2]: Active

Compound: Cc1ccc(S(=O)(=O)N(CC(=O)O)CC(=O)/C=C/C=C/CCCCCCCCCCn2nnc3c2-c2ccccc2CN(C(=O)CCCCCNC(=O)C(F)(F)F)c2ccccc2-3)cc1
Activity [3]: Active

Compound: O=C(CCCCCNC(=O)C(F)(F)F)N1Cc2ccccc2C#Cc2ccccc21
Activity [4]: inactive
Activity [5]: Active

Continued, values first:

Activity [1]: Dose-dependent effect
Compound: CCCCCCCCCC/C=C/C=C/C(=O)CN(CC(=O)OC)S(=O)(=O)c1ccc(C)cc1

Activity [3]: Active
Activity [2]: Active
Activity [6]: Active
Activity [7]: Active
Activity [8]: inactive
Activity [9]: Dose-dependent effect
Activity [10]: Active
Activity [11]: inactive
Activity [1]: Dose-dependent effect
Compound: COC(=O)CN(CC(=O)/C=C/C=C/CCCCCCCCCCN=[N+]=[N-])S(=O)(=O)c1ccc(C)cc1
